According to patent US10610520B2, “Heterocyclic compound” (Takeda Pharmaceutical Company Limited, priority 2016, dated 2020):

Biological target: T1, His-hMAGL (recombinant polyhistidine tagged human MAGL protein) (Homo sapiens, UniProt Q99685)
T1 construct: made in house; host or cells: E. coli BL21(DE3)
T1 sequence (Q99685 1-303): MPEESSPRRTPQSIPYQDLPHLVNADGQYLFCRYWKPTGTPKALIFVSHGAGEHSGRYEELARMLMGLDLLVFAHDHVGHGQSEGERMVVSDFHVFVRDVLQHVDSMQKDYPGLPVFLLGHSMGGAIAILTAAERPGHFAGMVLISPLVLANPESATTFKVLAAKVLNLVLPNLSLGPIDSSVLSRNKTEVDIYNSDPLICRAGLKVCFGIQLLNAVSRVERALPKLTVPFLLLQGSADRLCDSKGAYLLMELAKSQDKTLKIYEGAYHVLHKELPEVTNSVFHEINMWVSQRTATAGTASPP
Assay: Measurement of MAGL inhibitory activity (arachidonic acid production from 2-arachidonylglycerol, RapidFire-mass spectrometry)
Type: biochemical
Conditions: MAGL inhibitory rate, test compound 10 μM, 60 min preincubation, 2-arachidonylglycerol substrate
How it was run: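 Arachidonic acid formed was quantified by online solid-phase extraction and triple-quadrupole MS in negative SRM mode against a d8 internal standard. Reaction: recombinant His-hMAGL (7.5 ng/mL, pH 7.5 Tris buffer with Triton X-100 and BSA) plus 2-AG (5 μL of 150 μM stock) for 10 min at room temperature, quenched with 2% formic acid. Percent inhibition corrected for enzyme-free background.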

| Compound | inhibition at 10 µM |
| --- | --- |
| O=C1CCC2(CN(C(=O)c3sc4cc(-c5ccc(OC(F)(F)F)cc5)ccc4c3Cl)C2)N1 [Example 200, 2-((3-chloro-6-(4-(trifluoromethoxy)phenyl)-1-benzothiophen-2-yl)carbonyl)-2,5-diazaspiro[3.4]octan-6-one] | 94% |
| O=C1CCC2(CN(C(=O)c3sc4cc(-c5cccc(OC(F)(F)F)c5)ccc4c3Cl)C2)N1 [Example 201, 2-((3-chloro-6-(3-(trifluoromethoxy)phenyl)-1-benzothiophen-2-yl)carbonyl)-2,5-diazaspiro[3.4]octan-6-one] | 98% |
| Cc1ccc(F)c(-c2ccc3c(Cl)c(C(=O)N4CC5(CCC(=O)N5)C4)sc3c2)c1 [Example 202, 2-((3-chloro-6-(2-fluoro-5-methylphenyl)-1-benzothiophen-2-yl)carbonyl)-2,5-diazaspiro[3.4]octan-6-one] | 100% |
| Cc1cccc(F)c1-c1ccc2c(Cl)c(C(=O)N3CC4(CCC(=O)N4)C3)sc2c1 [Example 203, 2-((3-chloro-6-(2-fluoro-6-methylphenyl)-1-benzothiophen-2-yl)carbonyl)-2,5-diazaspiro[3.4]octan-6-one] | 101% |
| Cc1c(F)cccc1-c1ccc2c(Cl)c(C(=O)N3CC4(CCC(=O)N4)C3)sc2c1 [Example 204, 2-((3-chloro-6-(3-fluoro-2-methylphenyl)-1-benzothiophen-2-yl)carbonyl)-2,5-diazaspiro[3.4]octan-6-one] | 100% |
| Cc1ccc(F)cc1-c1ccc2c(Cl)c(C(=O)N3CC4(CCC(=O)N4)C3)sc2c1 [Example 205, 2-((3-chloro-6-(5-fluoro-2-methylphenyl)-1-benzothiophen-2-yl)carbonyl)-2,5-diazaspiro[3.4]octan-6-one] | 101% |
| Cc1ccc(-c2ccc3c(Cl)c(C(=O)N4CC5(CCC(=O)N5)C4)sc3c2)cc1F [Example 206, 2-((3-chloro-6-(3-fluoro-4-methylphenyl)-1-benzothiophen-2-yl)carbonyl)-2,5-diazaspiro[3.4]octan-6-one] | 96% |
| Cc1ccc(-c2ccc3c(Cl)c(C(=O)N4CC5(CCC(=O)N5)C4)sc3c2)c(F)c1 [Example 207, 2-((3-chloro-6-(2-fluoro-4-methylphenyl)-1-benzothiophen-2-yl)carbonyl)-2,5-diazaspiro[3.4]octan-6-one] | 99% |
| Cc1cccc(-c2ccc3c(Cl)c(C(=O)N4CC5(CCC(=O)N5)C4)sc3c2)c1F [Example 208, 2-((3-chloro-6-(2-fluoro-3-methylphenyl)-1-benzothiophen-2-yl)carbonyl)-2,5-diazaspiro[3.4]octan-6-one] | 100% |
| Cc1cc(F)ccc1-c1ccc2c(Cl)c(C(=O)N3CC4(CCC(=O)N4)C3)sc2c1 [Example 209, 2-((3-chloro-6-(4-fluoro-2-methylphenyl)-1-benzothiophen-2-yl)carbonyl)-2,5-diazaspiro[3.4]octan-6-one] | 99% |
| Cc1cc(-c2ccc3c(Cl)c(C(=O)N4CC5(CCC(=O)N5)C4)sc3c2)ccc1F [Example 210, 2-((3-chloro-6-(4-fluoro-3-methylphenyl)-1-benzothiophen-2-yl)carbonyl)-2,5-diazaspiro[3.4]octan-6-one] | 101% |
| Cc1cc(F)cc(-c2ccc3c(Cl)c(C(=O)N4CC5(CCC(=O)N5)C4)sc3c2)c1 [Example 211, 2-((3-chloro-6-(3-fluoro-5-methylphenyl)-1-benzothiophen-2-yl)carbonyl)-2,5-diazaspiro[3.4]octan-6-one] | 99% |
| O=C1CCC2(CN(C(=O)c3sc4cc(-c5cc(F)ccc5F)ccc4c3Cl)C2)N1 [Example 212, 2-((3-chloro-6-(2,5-difluorophenyl)-1-benzothiophen-2-yl)carbonyl)-2,5-diazaspiro[3.4]octan-6-one] | 100% |
| O=C1CCC2(CN(C(=O)c3sc4cc(-c5c(F)cccc5F)ccc4c3Cl)C2)N1 [Example 213, 2-((3-chloro-6-(2,6-difluorophenyl)-1-benzothiophen-2-yl)carbonyl)-2,5-diazaspiro[3.4]octan-6-one] | 100% |
| O=C1CCC2(CN(C(=O)c3sc4cc(-c5cc(F)cc(F)c5)ccc4c3Cl)C2)N1 [Example 214, 2-((3-chloro-6-(3,5-difluorophenyl)-1-benzothiophen-2-yl)carbonyl)-2,5-diazaspiro[3.4]octan-6-one] | 99% |
| O=C1CCC2(CN(C(=O)c3sc4cc(-c5cccc(F)c5F)ccc4c3Cl)C2)N1 [Example 215, 2-((3-chloro-6-(2,3-difluorophenyl)-1-benzothiophen-2-yl)carbonyl)-2,5-diazaspiro[3.4]octan-6-one] | 99% |
| O=C1CCC2(CN(C(=O)c3sc4cc(-c5ccc(F)c(F)c5)ccc4c3Cl)C2)N1 [Example 216, 2-((3-chloro-6-(3,4-difluorophenyl)-1-benzothiophen-2-yl)carbonyl)-2,5-diazaspiro[3.4]octan-6-one] | 100% |
| O=C1CCC2(CN(C(=O)c3sc4cc(-c5ccc(C6CC6)cc5)ccc4c3Cl)C2)N1 [Example 217, 2-((3-chloro-6-(4-cyclopropylphenyl)-1-benzothiophen-2-yl)carbonyl)-2,5-diazaspiro[3.4]octan-6-one] | 97% |
| O=C1CCC2(CN(C(=O)c3sc4cc(-c5cccc(C6CC6)c5)ccc4c3Cl)C2)N1 [Example 218, 2-((3-chloro-6-(3-cyclopropylphenyl)-1-benzothiophen-2-yl)carbonyl)-2,5-diazaspiro[3.4]octan-6-one] | 100% |
| O=C1CCC2(CN(C(=O)c3sc4cc(-c5ccc(C(F)F)cc5)ccc4c3Cl)C2)N1 [Example 219, 2-((3-chloro-6-(4-(difluoromethyl)phenyl)-1-benzothiophen-2-yl)carbonyl)-2,5-diazaspiro[3.4]octan-6-one] | 94% |
| O=C1CCC2(CN(C(=O)c3sc4cc(-c5cccc(F)c5Cl)ccc4c3Cl)C2)N1 [Example 220, 2-((3-chloro-6-(2-chloro-3-fluorophenyl)-1-benzothiophen-2-yl)carbonyl)-2,5-diazaspiro[3.4]octan-6-one] | 100% |
| O=C1CCC2(CN(C(=O)c3sc4cc(-c5c(F)cccc5Cl)ccc4c3Cl)C2)N1 [Example 221, 2-((3-chloro-6-(2-chloro-6-fluorophenyl)-1-benzothiophen-2-yl)carbonyl)-2,5-diazaspiro[3.4]octan-6-one] | 100% |
| O=C1CCC2(CN(C(=O)c3sc4cc(-c5cc(Cl)ccc5F)ccc4c3Cl)C2)N1 [Example 222, 2-((3-chloro-6-(5-chloro-2-fluorophenyl)-1-benzothiophen-2-yl)carbonyl)-2,5-diazaspiro[3.4]octan-6-one] | 99% |
| O=C1CCC2(CN(C(=O)c3sc4cc(-c5cc(F)ccc5Cl)ccc4c3Cl)C2)N1 [Example 223, 2-((3-chloro-6-(2-chloro-5-fluorophenyl)-1-benzothiophen-2-yl)carbonyl)-2,5-diaspiro[3.4]octan-6-one] | 100% |
| O=C1CCC2(CN(C(=O)c3sc4cc(-c5ccc(F)cc5Cl)ccc4c3Cl)C2)N1 [Example 224, 2-((3-chloro-6-(2-chloro-4-fluorophenyl)-1-benzothiophen-2-yl)carbonyl)-2,5-diazaspiro[3.4]octan-6-one] | 100% |
